Data taken from patent US6569870B1, “Fluorinated quinolones as antimitotic and antitumor agents” (The University of North Carolina at Chapel Hill, priority 2000, dated 2003).
Where two headings read alike, the source gives them in different places.

Key:
[1] = tested on: OVCAR-3, ovarian cancer cell line; experiment: NCI HTCL in vitro screen, OVCAR-3; assay type: cell-based, human; conditions: for GI50: Homo sapiens, OVCAR-3, log concentration that reduced cell growth by 50%, read-out: Cytotoxicity log GI50, OVCAR-3 (converted)
From the text: (§1) This assay involves determination of a test agent's effect on growth parameters against a panel of approximately 60 human tumor cell lines, mostly derived from solid tumors.

[2] = tested on: NCI-H226, non-small cell lung cancer cell line; experiment: NCI HTCL in vitro screen, NCI-H226; assay type: cell-based, human; conditions: for GI50: Homo sapiens, NCI-H226, log concentration that reduced cell growth by 50%, read-out: Cytotoxicity log GI50, NCI-H226 (converted)
From the text: as §1

[3] = tested on: SF-268 CNS tumor cell line; experiment: NCI HTCL in vitro screen, SF-268; assay type: cell-based; conditions: Homo sapiens, log concentration that reduced cell growth by 50%, read-out: Cytotoxicity log GI50, SF-268 (converted)
From the text: as §1

[4] = tested on: OVCAR-3 ovarian cell line; conditions: mice bearing OVCAR-3 tumor; previously reported (background); cited from earlier work
[5] = tested on: HCT-116, colon cancer cell line; experiment: NCI HTCL in vitro screen, HCT116; assay type: cell-based, human; conditions: for GI50: Homo sapiens, HCT-116, log concentration that reduced cell growth by 50%, read-out: Cytotoxicity log GI50, HCT116 (converted)
From the text: as §1

[6] = tested on: SF-295 CNS tumor cell line; experiment: NCI HTCL in vitro screen, SF-295; assay type: cell-based, human; conditions: for GI50: Homo sapiens, SF-295, log concentration that reduced cell growth by 50%, read-out: Cytotoxicity log GI50, SF-295 (converted)
From the text: as §1

[7] = tested on: T1, tubulin; experiment: Inhibition of [3H]colchicine binding to tubulin (ICB); conditions: for ICB (% inhib ± SD): 5 μM [3H]colchicine, 1 μM tubulin
T1 construct: ITP IC50 ± SD; other: 10 μM tubulin; ICB (% inhib ± SD); effect on tubulin polymerization; other: relative to combretastatin A-4; Ha

[8] = tested on: SK-Me15, melanoma; experiment: NCI HTCL in vitro screen, SK-Me15; assay type: cell-based, human; conditions: log concentration that reduced cell growth by 50%; for GI50: Homo sapiens, read-out: Cytotoxicity log GI50, SK-Me15 (converted)
From the text: as §1

[9] = tested on: T1, tubulin; experiment: Inhibition of tubulin polymerization (ITP); assay type: biochemical; conditions: for IC50: 10 μM tubulin, read-out: ITP IC50 ± SD
[10] = tested on: panel of approximately 60 human tumor cell lines; conditions: previously reported (L. Li et al. 1994); cited from earlier work
[11] = tested on: tubulin; conditions: previously reported (background); read-out: inhibition of tubulin polymerization IC50; cited from earlier work
[12] = tested on: panel of approximately 60 human tumor cell lines; experiment: NCI HTCL in vitro screen, mean over all cell lines; assay type: cell-based; conditions: mean over all 60 cell lines; for GI50: Homo sapiens, read-out: Mean log GI50 (converted)
Procedure: Compounds 1-7 and 13 were tested in National Cancer Institute's HTCL screen (M. Grever et al., Seminars Oncol. 1992, 19, 622-638; A. Monks et al., J. Natl. Cancer Inst. 1991, 83, 757-766). This assay involves determination of a test agent's effect on growth parameters against a panel of approximately 60 human tumor cell lines, mostly derived from solid tumors.

[13] = tested on: K-562, leukemia cell line; experiment: NCI 60 human tumor cell line (HTCL) in vitro screen, K562; assay type: cell-based; conditions: log concentration that reduced cell growth by 50%, read-out: Cytotoxicity log GI50, K562 (converted)
From the text: as §1

[14] = tested on: RXF-393, renal cancer cell line; experiment: NCI HTCL in vitro screen, RXF-393; assay type: cell-based, human; conditions: log concentration that reduced cell growth by 50%; for GI50: Homo sapiens, RXF 393, read-out: Cytotoxicity log GI50, RXF-393 (converted)
From the text: as §1

[15] = tested on: T1, tubulin; conditions: data from literature (Kuo 1993; Hamel 1996; Xia 1998); read-out: ITP IC50 ± SD; cited from earlier work

SMILES	GI50 [1]	GI50 [2]	GI50 [3]	GI50 [5]	GI50 [6]	GI50 [8]	IC50 [9]	GI50 [12]	GI50 [13]	GI50 [14]	melting point	further results
O=c1cc(-c2ccccc2F)[nH]c2cc3c(cc12)OCO3 [Compound 1, 2′-Fluoro-6,7-(methylenedioxy)-2-phenyl-4-quinolone]	81.3 nM	0.447 µM	2.29 µM	0.0603 µM	0.055 µM	0.0209 µM	0.68 ± 0.02 µM	0.135 µM				prolonging the life span of mice bearing the tumor [4]: 130%; ICB (% inhib ± SD) ([7]; 5 μM inhibitor): 39 ± 2 % inhib; average log G150 value in the HTCL screen [10]: −6.47; IC50 [11]: 850 nM
Fc1ccccc1-c1cc(=S)c2cc3c(cc2[nH]1)OCO3 [Compound 6, 2′-Fluoro-6,7-(methylenedioxy)-2-phenylquino-4-thione]	21400 nM	16.6 µM	20 µM	5.5 µM	11.7 µM	4.07 µM		15.5 µM	56.2 µM	29.5 µM		
CCOC(=O)COc1cc(-c2ccccc2F)nc2cc3c(cc12)OCO3 [Compound 2, 2′-Fluoro-6,7-(methylenedioxy)-2-phenyl-4-(O-ethylacetate)quinoline]		> 100 µM	> 100 µM	72.4 µM	> 100 µM	72.4 µM	> 40 µM	79.4 µM	38 µM	> 100 µM	119 to 120 °C	
O=c1[nH]c(C=Cc2ccccc2)nc2ccccc12 [Compound 18, 2-styrylquinazolin-4(3H)-one]												IC50 [15]: 5 ± 0.6 µM
CCOC(=O)CCCOc1cc(-c2ccccc2F)nc2cc3c(cc12)OCO3 [Compound 4, 2′-Fluoro-6,7-(methylenedioxy)-2-phenyl-4-(O-ethyl 4′-butyrate)quinoline]			> 100 µM	> 100 µM		57.5 µM	> 40 µM	47.9 µM			93 to 94 °C	
Oc1cc(-c2ccccc2F)nc2ccc(N3CCCC3)cc12 [Compound 13]			0.0389 µM			< 0.01 µM	0.46 µM		0.0324 µM	< 0.01 µM		ICB (% inhib ± SD) ([7]; 1 μM inhibitor): 76 ± 5 % inhib; ICB (% inhib ± SD) ([7]; 5 μM inhibitor): 93 ± 1 % inhib; inhibition of [3H]colchicine binding to tubulin ([7]; relative to combretastatin A-4): nearly as active as the highly potent combretastatin A-4; Cytotoxicity log GI50, SK-Me15 [8]: <−8.00 M; Cytotoxicity log GI50, RXF-393 [14]: <−8.00 M; Mean log GI50 [12]: −7.62 M
O=C(O)CCCOc1cc(-c2ccccc2F)nc2cc3c(cc12)OCO3 [Compound 5, 2′-Fluoro-6,7-(methylenedioxy)-2-phenyl-4-(O-ethyl 4′-butylacetic acid)quinoline]							12 ± 3 µM	4.68 µM			> 300 °C	
O=C(O)COc1cc(-c2ccccc2F)nc2cc3c(cc12)OCO3 [Compound 3, 2′-Fluoro-6,7-(methylenedioxy)-2-phenyl-4-(O-acetic acid)quinoline]	> 100000 nM	> 100 µM	> 100 µM	> 100 µM	> 100 µM	> 100 µM	> 20 µM	> 100 µM	> 100 µM	> 100 µM	> 300 °C	
CC(C)(C)OC(=O)n1c(-c2ccccc2F)cc(=O)c2cc3c(cc21)OCO3 [Compound 7, N-Boc-2′-fluoro-6,7-(methylenedioxy)-2-phenyl-4-quinolone]	32.4 nM	0.0251 µM		0.0447 µM	0.117 µM		3.2 ± 1 µM	0.589 µM	> 100 µM	> 100 µM		cytotoxicity relative to 1, OVCAR-3 ([1]; relative to compound 1): equipotent with 1; fold more active than 1 against NCI-H226 ([2]; relative to compound 1): ~20 fold; cytotoxicity relative to 1, HCT-116 ([5]; relative to compound 1): equipotent with 1; cytotoxicity relative to 1, SF-295 ([6]; relative to compound 1): less active than 1; effect on tubulin polymerization [9]: moderate activity
